Usually IC50 stands for the concentration that gives 50% inhibition. Higher therefore signals a need for much substance. By inhibition is commonly meant the relative decrease from the control value, in per cent. For orientation: logP means the decadic logarithm of the partition coefficient of the neutral form, usually between octanol and water. Read a high logP as higher lipophilicity.

Results on two compounds are retold here after ChEMBL document CHEMBL1140238, “Synthesis of selective SRPK-1 inhibitors: novel tricyclic quinoxaline derivatives” (Bioorg Med Chem Lett, 2005).

A short description of data set [1]: Inhibitory activity against Platelet-derived growth factor receptor kinase.
Data set [2] concerns the target Mitogen-activated protein kinase 8 (Homo sapiens) (UniProt P45983). Briefly: In vitro percent inhibition of c-Jun N-terminal kinase 1-alpha 1 at 10 uM concentration of compound dissolved in 100% DMSO using 5''-[gamma-33P]-triphosphate.
Data set [3] can be described thus: In vitro percent inhibition of Cyclin-dependent kinase 2-cyclin A at 10 uM concentration of compound dissolved in 100% DMSO using 5''-[gamma-33P]-triphosphate.
For data set [4], the target named is Ribosomal protein S6 kinase (P70S6K) (Homo sapiens) (UniProt Q9UBS0+P23443). Briefly: In vitro percent inhibition of Ribosomal protein S6 kinase at 10 uM concentration of compound dissolved in 100% DMSO using 5''-[gamma-33P]-triphosphate. It is filed as protein-complex assay.
In data set [5] the target is RAF proto-oncogene serine/threonine-protein kinase (Homo sapiens) (UniProt P04049). The experiment in a line: In vitro percent inhibition of RAF proto-oncogene serine/threonine-protein kinase at 10 uM concentration of compound dissolved in 100% DMSO using 5''-[gamma-33P]-triphosphate.
The target in data set [6] is Platelet-derived growth factor receptor beta (Homo sapiens) (UniProt P09619). The experiment in a line: In vitro percent inhibition of Platelet-derived growth factor receptor, beta polypeptide at 10 uM concentration of compound dissolved in 100% DMSO using 5''-[gamma-33P]-triphosphate.
In data set [7] the target is Mast/stem cell growth factor receptor Kit (Homo sapiens) (UniProt P10721). The experiment in a line: In vitro percent inhibition of v-kit Hardy-Zuckerman 4 feline sarcoma viral oncogene homolog at 10 uM concentration of compound dissolved in 100% DMSO using 5''-[gamma-33P]-triphosphate.
Data set [8] addresses Insulin receptor (Homo sapiens) (UniProt P06213). Briefly: In vitro percent inhibition of Insulin receptor at 10 uM concentration of compound dissolved in 100% DMSO using 5''-[gamma-33P]-triphosphate.
For data set [9], the target named is Hepatocyte growth factor receptor (Homo sapiens) (UniProt P08581). Briefly: In vitro percent inhibition of Met proto-oncogene tyrosine kinase at 10 uM concentration of compound dissolved in 100% DMSO using 5''-[gamma-33P]-triphosphate.
Data set [10] deals with Mitogen-activated protein kinase 3 (Homo sapiens) (UniProt P27361). The experiment in a line: In vitro percent inhibition of Mitogen-activated protein kinase 3 at 10 uM concentration of compound dissolved in 100% DMSO using 5''-[gamma-33P]-triphosphate.
Data set [11] addresses Tyrosine-protein kinase Lck (Homo sapiens) (UniProt P06239). The experiment in a line: In vitro percent inhibition of p56 Lck tyrosine kinase at 10 uM concentration of compound dissolved in 100% DMSO using 5''-[gamma-33P]-triphosphate.
Data set [12] addresses Rho-associated protein kinase 2 (Homo sapiens) (UniProt O75116). The experiment in a line: In vitro percent inhibition of Protein kinase ROCK2 at 10 uM concentration of compound dissolved in 100% DMSO using 5''-[gamma-33P]-triphosphate.
The target of data set [13] is Casein kinase I isoform alpha (Homo sapiens) (UniProt P48729). The experiment in a line: In vitro percent inhibition of Casein kinase 1 alpha at 10 uM concentration of compound dissolved in 100% DMSO using 5''-[gamma-33P]-triphosphate.
Data set [14] deals with T1, Inhibitor of nuclear factor kappa-B kinase subunit beta (Homo sapiens) (UniProt O14920).
T1 sequence (whole entry): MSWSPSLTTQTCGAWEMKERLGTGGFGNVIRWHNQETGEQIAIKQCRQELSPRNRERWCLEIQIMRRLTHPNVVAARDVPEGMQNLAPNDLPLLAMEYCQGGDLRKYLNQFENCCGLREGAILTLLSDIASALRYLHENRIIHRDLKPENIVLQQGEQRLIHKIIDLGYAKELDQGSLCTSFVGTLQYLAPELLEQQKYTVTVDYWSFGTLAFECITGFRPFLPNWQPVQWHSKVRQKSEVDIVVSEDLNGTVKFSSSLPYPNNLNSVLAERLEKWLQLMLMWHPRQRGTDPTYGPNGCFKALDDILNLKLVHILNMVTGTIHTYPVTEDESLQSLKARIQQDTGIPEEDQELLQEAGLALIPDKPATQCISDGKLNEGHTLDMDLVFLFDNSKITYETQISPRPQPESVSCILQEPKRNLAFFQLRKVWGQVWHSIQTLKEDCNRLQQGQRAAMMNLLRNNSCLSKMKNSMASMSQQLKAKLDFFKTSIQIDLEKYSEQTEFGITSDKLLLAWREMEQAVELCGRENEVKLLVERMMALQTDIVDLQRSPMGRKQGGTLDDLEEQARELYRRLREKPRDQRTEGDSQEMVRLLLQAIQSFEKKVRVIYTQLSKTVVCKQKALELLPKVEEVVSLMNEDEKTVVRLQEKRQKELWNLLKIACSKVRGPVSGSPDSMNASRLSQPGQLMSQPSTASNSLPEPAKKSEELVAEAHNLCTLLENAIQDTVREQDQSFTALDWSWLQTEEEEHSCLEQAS
The experiment in a line: In vitro percent inhibition of I-kappa-B-kinase beta at 10 uM concentration of compound dissolved in 100% DMSO using 5''-[gamma-33P]-triphosphate.

Data set [15] is described as follows: In vitro percent inhibition of Ribosomal S6 kinase 1 at 10 uM concentration of compound dissolved in 100% DMSO using 5''-[gamma-33P]-triphosphate.
Data set [16] addresses Proto-oncogene tyrosine-protein kinase Src (Homo sapiens) (UniProt P12931). Briefly: In vitro percent inhibition of c-Src tyrosine kinase at 10 uM concentration of compound dissolved in 100% DMSO using 5''-[gamma-33P]-triphosphate.
Data set [17] deals with T2, Tyrosine-protein kinase transforming protein Abl (Abelson murine leukemia virus) (UniProt P00521).
T2 sequence (whole entry): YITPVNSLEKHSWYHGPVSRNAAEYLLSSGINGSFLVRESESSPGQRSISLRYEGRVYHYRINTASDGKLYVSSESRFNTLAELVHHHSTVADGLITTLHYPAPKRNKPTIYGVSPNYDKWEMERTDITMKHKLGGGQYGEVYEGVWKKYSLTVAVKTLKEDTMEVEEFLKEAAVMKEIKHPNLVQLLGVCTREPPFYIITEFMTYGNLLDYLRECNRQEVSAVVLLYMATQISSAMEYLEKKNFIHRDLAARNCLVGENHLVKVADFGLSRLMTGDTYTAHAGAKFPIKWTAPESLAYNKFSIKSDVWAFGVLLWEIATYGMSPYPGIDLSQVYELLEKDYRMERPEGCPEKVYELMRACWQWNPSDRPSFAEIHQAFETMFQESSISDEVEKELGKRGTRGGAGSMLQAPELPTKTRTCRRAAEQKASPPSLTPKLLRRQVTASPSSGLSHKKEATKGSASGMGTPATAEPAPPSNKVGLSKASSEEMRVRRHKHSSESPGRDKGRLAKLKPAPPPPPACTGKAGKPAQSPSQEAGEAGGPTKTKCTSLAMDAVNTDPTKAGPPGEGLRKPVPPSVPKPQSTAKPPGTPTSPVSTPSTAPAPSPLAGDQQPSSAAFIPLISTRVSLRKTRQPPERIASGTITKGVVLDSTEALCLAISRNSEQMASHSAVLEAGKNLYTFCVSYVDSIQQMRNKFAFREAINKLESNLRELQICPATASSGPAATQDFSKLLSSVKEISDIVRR
The experiment in a line: In vitro percent inhibition of v-Abl tyrosine kinase at 10 uM concentration of compound dissolved in 100% DMSO using 5''-[gamma-33P]-triphosphate.

Data set [18] can be described thus: Partition coefficient (logP). The data set is classed as physicochemical. Conditions: octanol/water; call rule not given here.
The target in data set [19] is Epidermal growth factor receptor (Homo sapiens) (UniProt P00533). Conditions: 10 uM.
The test system of a further data set is SRPK1 (Homo sapiens). Briefly: In vitro inhibition of SR protein kinase 1 by compound dissolved in 100% DMSO using 5''-[gamma-33P]-triphosphate; n.a. - not active.

Structures are written as SMILES.

Chain of Platelet-derived growth factor receptor beta (Homo sapiens) (P09619 whole entry): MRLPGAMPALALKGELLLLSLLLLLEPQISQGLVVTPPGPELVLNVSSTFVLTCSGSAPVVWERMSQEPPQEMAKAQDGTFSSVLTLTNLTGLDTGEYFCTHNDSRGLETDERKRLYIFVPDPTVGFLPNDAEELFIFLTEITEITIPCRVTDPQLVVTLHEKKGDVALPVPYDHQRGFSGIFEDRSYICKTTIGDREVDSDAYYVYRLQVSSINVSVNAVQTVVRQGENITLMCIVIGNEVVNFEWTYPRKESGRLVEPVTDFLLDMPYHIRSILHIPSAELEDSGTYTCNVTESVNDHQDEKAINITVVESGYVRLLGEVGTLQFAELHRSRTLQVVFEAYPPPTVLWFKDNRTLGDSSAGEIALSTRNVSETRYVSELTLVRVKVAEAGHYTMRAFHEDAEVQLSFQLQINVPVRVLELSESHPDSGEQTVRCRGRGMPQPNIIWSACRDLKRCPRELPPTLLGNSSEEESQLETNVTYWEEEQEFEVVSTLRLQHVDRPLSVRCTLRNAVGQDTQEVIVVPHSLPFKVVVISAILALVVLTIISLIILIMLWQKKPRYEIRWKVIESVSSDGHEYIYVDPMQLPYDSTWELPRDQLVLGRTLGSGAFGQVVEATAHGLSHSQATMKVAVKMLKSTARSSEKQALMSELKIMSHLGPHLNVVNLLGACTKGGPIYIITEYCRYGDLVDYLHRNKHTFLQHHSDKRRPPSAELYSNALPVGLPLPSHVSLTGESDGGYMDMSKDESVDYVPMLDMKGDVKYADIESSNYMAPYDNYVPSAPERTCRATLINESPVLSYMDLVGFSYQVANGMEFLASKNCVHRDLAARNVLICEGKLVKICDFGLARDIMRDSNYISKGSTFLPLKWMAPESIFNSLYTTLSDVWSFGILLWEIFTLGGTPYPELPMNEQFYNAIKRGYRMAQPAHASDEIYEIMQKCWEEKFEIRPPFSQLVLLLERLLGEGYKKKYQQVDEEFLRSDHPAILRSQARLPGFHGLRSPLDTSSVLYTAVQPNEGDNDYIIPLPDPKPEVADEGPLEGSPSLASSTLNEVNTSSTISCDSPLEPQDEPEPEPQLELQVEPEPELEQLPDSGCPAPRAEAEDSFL
Chain of Epidermal growth factor receptor (Homo sapiens) (P00533 whole entry): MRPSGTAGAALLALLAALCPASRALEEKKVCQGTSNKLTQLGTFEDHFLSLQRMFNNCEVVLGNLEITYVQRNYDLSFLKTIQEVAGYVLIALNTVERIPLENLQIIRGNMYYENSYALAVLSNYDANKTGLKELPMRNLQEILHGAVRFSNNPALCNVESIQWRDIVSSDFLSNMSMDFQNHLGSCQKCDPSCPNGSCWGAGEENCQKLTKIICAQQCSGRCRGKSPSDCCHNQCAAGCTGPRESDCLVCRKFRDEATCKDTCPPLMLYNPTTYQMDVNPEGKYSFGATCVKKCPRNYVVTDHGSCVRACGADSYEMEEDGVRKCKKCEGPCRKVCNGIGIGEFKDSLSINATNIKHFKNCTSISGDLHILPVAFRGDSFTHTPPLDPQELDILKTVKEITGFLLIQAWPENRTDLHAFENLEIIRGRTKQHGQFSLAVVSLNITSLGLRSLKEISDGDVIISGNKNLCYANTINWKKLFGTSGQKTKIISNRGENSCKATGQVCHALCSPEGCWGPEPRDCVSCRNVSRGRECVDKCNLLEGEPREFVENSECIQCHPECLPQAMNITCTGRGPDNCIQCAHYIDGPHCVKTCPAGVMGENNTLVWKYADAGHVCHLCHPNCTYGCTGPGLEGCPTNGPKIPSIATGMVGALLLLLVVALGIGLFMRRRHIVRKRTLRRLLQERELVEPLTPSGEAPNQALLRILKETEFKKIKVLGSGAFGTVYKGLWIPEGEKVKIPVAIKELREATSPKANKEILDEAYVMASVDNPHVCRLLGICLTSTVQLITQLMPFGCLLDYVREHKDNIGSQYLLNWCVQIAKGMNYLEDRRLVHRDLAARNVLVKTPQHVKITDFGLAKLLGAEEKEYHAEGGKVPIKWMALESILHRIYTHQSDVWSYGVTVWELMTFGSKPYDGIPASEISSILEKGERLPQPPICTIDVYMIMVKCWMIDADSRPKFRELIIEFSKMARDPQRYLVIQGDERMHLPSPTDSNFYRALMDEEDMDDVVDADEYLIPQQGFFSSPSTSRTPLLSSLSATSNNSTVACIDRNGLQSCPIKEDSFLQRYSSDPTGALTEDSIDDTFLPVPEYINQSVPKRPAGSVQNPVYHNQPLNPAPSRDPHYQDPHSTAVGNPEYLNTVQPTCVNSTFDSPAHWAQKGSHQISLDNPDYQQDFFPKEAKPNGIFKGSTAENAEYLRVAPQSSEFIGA
Chain of Tyrosine-protein kinase Lck (Homo sapiens) (P06239 2-509 limits assumed): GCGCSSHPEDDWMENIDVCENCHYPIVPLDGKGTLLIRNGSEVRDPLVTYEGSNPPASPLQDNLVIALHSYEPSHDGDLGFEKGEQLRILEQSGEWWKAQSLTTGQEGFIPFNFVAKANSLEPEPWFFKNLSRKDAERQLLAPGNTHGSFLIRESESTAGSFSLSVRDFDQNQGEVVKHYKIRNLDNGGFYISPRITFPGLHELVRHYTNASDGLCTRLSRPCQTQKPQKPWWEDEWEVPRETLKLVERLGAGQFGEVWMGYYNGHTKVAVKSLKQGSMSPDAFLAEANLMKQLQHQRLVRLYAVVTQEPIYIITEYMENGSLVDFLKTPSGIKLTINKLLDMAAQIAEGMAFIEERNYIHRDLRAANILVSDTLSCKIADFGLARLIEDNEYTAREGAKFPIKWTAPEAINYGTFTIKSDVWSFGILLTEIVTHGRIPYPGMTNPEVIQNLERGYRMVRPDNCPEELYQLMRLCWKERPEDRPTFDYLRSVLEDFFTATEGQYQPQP
Chain of Insulin receptor (Homo sapiens) (P06213 28-758 limits assumed): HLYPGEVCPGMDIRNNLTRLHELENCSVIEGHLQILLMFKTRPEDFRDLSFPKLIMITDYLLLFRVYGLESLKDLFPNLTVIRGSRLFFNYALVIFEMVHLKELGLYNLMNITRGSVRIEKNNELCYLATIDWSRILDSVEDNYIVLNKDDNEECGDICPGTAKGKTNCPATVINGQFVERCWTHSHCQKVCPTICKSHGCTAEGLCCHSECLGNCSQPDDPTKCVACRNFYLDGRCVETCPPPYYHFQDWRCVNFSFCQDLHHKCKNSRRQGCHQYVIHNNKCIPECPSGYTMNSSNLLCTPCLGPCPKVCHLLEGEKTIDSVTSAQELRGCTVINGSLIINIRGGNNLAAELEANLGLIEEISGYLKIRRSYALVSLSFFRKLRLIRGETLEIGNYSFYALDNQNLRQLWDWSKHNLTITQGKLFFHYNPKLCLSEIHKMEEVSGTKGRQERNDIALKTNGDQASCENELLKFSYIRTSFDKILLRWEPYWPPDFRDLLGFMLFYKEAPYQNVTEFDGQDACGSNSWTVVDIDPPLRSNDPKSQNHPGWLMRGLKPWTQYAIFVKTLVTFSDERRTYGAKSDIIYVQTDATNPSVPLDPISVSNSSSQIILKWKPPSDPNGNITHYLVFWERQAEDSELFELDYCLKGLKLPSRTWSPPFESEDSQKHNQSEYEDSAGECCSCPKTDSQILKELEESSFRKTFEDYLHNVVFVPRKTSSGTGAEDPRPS
Chain of Insulin receptor (Homo sapiens) (P06213 763-1382 limits assumed): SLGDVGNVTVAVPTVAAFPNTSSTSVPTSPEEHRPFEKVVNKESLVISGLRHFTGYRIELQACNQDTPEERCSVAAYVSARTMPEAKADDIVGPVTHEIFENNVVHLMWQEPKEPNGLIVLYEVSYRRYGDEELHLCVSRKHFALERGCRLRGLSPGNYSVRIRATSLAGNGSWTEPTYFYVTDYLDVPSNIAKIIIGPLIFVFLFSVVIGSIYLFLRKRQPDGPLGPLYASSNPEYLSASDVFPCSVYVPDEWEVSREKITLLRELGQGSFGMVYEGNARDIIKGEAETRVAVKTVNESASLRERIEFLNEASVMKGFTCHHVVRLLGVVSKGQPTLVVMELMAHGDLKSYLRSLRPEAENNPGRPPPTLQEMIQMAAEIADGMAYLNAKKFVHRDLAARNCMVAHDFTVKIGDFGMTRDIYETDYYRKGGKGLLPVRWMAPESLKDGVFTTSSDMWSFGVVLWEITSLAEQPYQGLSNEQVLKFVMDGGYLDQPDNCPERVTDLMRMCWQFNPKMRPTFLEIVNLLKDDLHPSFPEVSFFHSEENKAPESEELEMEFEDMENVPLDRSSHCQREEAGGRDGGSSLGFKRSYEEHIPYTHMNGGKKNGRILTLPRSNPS
Chain of Casein kinase I isoform alpha (Homo sapiens) (P48729 2-337 limits assumed): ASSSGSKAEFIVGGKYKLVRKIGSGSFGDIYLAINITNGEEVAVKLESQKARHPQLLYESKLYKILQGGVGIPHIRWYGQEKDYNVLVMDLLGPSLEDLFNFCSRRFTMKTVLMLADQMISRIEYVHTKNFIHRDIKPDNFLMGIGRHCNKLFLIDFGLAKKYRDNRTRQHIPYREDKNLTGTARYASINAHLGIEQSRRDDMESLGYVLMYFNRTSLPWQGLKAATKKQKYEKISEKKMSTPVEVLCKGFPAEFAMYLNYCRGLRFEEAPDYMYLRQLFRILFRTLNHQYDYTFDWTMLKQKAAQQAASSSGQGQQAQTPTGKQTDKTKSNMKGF
Chain of Mitogen-activated protein kinase 8 (Homo sapiens) (P45983 whole entry): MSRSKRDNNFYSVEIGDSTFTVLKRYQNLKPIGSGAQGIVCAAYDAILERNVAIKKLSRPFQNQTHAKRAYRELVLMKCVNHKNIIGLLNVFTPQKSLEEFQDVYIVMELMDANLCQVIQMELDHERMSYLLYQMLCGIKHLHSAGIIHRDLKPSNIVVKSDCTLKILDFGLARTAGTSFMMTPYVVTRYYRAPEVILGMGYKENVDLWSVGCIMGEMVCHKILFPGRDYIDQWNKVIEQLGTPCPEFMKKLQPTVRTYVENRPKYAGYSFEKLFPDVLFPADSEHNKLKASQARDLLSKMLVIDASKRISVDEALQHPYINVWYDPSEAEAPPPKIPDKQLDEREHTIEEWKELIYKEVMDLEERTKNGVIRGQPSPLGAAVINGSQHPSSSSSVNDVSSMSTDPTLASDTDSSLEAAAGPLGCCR

In turn, `c1ccc(-c2cnc3cc4ccccc4cc3n2)cc1` had an IC50 in data set [1] of 900 nM.
Turning to `c1csc(-c2nc3cc4c(cc3nc2-c2cccs2)OCCCO4)c1`, the inhibition in data set [2] was 15%; in [3], -7%; in data set [4], 2%; in data set [5], -5%; in [6], 24%; in data set [7], 22%. The inhibition in [8] is 34%; in [9], 27%; in data set [10] it was 21%; in [11] it was 39%; in data set [12], 32%; in data set [13] it was -5%. Further, the inhibition in data set [14] came out at 22%; in data set [15], 17%; in data set [16], 75%; in [17], 10%; in [19] it was 26%. The logP in [18] is 5. The IC50 result in the data set with SRPK1 (Homo sapiens) was “Not Active”.
